Measured values taken from patent US20250213701A1, “MEDICAMENT FOR TREATING HUMAN TUMOR BASED ON ERF3A-TARGETING PROTEOLYSIS MECHANISM” (SUZHOU DEGEN BIO-MEDICAL CO., LTD., priority 2022, published 2025).

Legend:
Type in all cases: cell-based
SRD5A3 = target: T1, SRD5A3 (Homo sapiens, UniProt Q9H8P0); assay: Western blot assay in PC-3 cells: SRD5A3; settings: different concentrations at 24 h (FIG. 9)
T1 construct: The downregulation of SRD5A3 and GSPT1 (eRF3a) proteins in PC-3 and HepG2 cells by C59; endogenous in cells; host or cells: 22Rv1, PC-3, HepG2
T1 sequence (Q9H8P0 1-318): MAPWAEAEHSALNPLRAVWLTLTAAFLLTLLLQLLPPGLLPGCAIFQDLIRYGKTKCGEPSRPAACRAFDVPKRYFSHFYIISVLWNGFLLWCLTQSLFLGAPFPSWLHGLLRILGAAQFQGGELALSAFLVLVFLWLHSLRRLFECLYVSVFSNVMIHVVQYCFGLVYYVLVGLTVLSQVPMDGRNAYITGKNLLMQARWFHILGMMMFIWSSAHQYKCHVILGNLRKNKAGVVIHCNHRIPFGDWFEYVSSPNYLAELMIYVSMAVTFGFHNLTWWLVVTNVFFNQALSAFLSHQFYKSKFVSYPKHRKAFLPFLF
Text: Example 84: Western Blot Assay of Compound C59 in 22Rv1, PC-3, and HepG2 Cells
(1) Materials: 22Rv1, PC-3, and HepG2 cell, anti-SRD5A1 antibody (ab167606), anti-SRD5A2 antibody (ab124877), anti-SRD5A3 antibody (PA5-107029), anti-androgen receptor (AR) antibody (CST, No. 5153), anti-GSPT1 antibody (Abcam, ab234433), anti-GADPH antibody (CST, No. 5174), anti-c-Myc antibody (CST, No. 8583), anti-α-tublin antibody (CST, No. 2125), anti-rabbit IgG, HRP-linked antibody (CST, No. 7074), electrophoresis device and membrane transfer device (LIUYI, BEIJING; DYCZ-24DN)
Cell seeding: 22Rv1 (Cell Bank of the Chinese Academy of Sciences, TCHu100), PC-3 (Cell Bank of the Chinese Academy of Sciences, SCSP-532) and HepG2 cells (Cell Bank of the Chinese Academy of Sciences, TCHu72) were subcultured and trypsinized to prepare 6×10^5 cells/mL suspensions, seeded on 6-well plates (3 mL/well), and cultured overnight in a cell incubator at 5% CO2 and 37° C. […]
Protein quantification: The protein was quantified using a BCA protein quantification kit. […]
Western immunoblot assay (or Western blot, WB): SDS-PAGE gel at a proper concentration was prepared according to the molecular weight of the target protein: for example, the concentration of the separation gel was 8% and the concentration of the stacking gel was 5%. The loading volume was adjusted according to the protein quantification results. […]

DLD-1 cells = assay: Anti-proliferative toxicity of C63 in tumor cell lines (CCK8): DLD-1; settings: Homo sapiens, 72 h, 3 days, read-out: Inhibition rate
Procedure: (§1) Example 83: Detection of Anti-Proliferative Toxicity of C63 in Some Tumor Cell Lines
DLD-1 cells (purchased from the Cell Bank of the Chinese Academy of Sciences, Cat. No. TCHu134) were subcultured in a culture medium (RPMI-1640 medium+1% penicillin-streptomycin dual-antibiotic solution+10% fetal bovine serum) in an incubator at 5% carbon dioxide and 37° C.
DLD-1 cells were seeded at 2000 cells/well (90 μL) on a 96-well plate and cultured for 24 h.
(§2) 10 mM compound stock solutions were prepared in DMSO.
(§3) The compound stock solution was diluted with DMSO to give DMSO solutions 1-9 at concentrations of 0 μM, 2500 μM, 500 μM, 100 μM, 20 μM, 4 μM, 0.8 μM, 0.16 μM, and 0.032 μM.
(§4) 2 μL of each of solutions 1-9 was added to 98 μL of the medium to give mixed solutions 11-19 of the compound and the medium.
(§5) 10 μL of each of solutions 11-19 was added to the above cell seed solution to give a total volume of 100 μL (90 μL+10 μL).
(§6) The concentrations of the compound in the wells were 0 μM, 5.0 μM, 1.0 μM, 0.2 μM, 0.04 μM, 0.008 μM, 0.0016 μM, 0.00032 μM, and 0.000064 μM. All concentrations were in triplicate.
(§7) After the above-treated cells were cultured for 3 days, 10 μL of the CCK8 solution (DOJINDO, Cat. No. PF725) was added to each well. The plate was incubated in an incubator at 37° C. for 1-4 h and then detected on a microplate reader for the reading at 450 nm.

KATO III cells = assay: Anti-proliferative toxicity of C63 in tumor cell lines (CCK8): KATO III; settings: Homo sapiens, 72 h, 3 days, read-out: Inhibition rate
Procedure: as §1
KATOIII cells (purchased from the Cell Bank of the Chinese Academy of Sciences, Cat. No. TCHu229) were subcultured in a culture medium (IMDM medium+1% penicillin-streptomycin dual-antibiotic solution+10% fetal bovine serum) in an incubator at 5% carbon dioxide and 37° C.
KATO III cells were seeded at 8000 cells/well (90 μL) on a 96-well plate and cultured for 24 h.
as §2, §3, §4, §5, §6, §7

downregulation of SRD5A3 protein (Western blot) (SRD5A3) | SMILES | inhibition at 64 pM (DLD-1 cells; 0.000064 μM) | inhibition at 0.00032 µM (DLD-1 cells; 0.000320 μM) | inhibition at 0.0016 µM (DLD-1 cells; 0.001600 μM) | inhibition at 0.008 µM (DLD-1 cells; 0.008000 μM) | inhibition at 0.04 µM (DLD-1 cells; 0.040000 μM) | inhibition at 0.2 µM (DLD-1 cells; 0.200000 μM) | inhibition at 1 µM (DLD-1 cells; 1.000000 μM) | inhibition at 5 µM (DLD-1 cells; 5.000000 μM) | inhibition at 64 pM (KATO III cells; 0.000064 μM) | inhibition at 0.00032 µM (KATO III cells; 0.000320 μM) | inhibition at 0.0016 µM (KATO III cells; 0.001600 μM) | inhibition at 0.008 µM (KATO III cells; 0.008000 μM) | inhibition at 0.04 µM (KATO III cells; 0.040000 μM) | inhibition at 0.2 µM (KATO III cells; 0.200000 μM) | inhibition at 1 µM (KATO III cells; 1.000000 μM) | inhibition at 5 µM (KATO III cells; 5.000000 μM)
downregulation | C[C@]12C=CC(=O)N[C@@H]1CC[C@@H]1[C@@H]2CC[C@]2(C)[C@@H](C(=O)Nc3cccc(N[C@@H]4CCC[C@@H](Nc5cccc6c5C(=O)N(C5CCC(=O)NC5=O)C6=O)C4)c3)CC[C@@H]12 (stereo partly drawn) [C59, N-(3-(N—(N-(4-(2-(3-(2,6-dioxopiperidine))-isoindole-1,3-dione))-1R,3R-cyclohexanediamine))phenyl)-3-oxo-4-aza-5α-androst-1-ene-17β-carboxamide] |  |  |  |  |  |  |  |  |  |  |  |  |  |  |  | 
 | C[C@]12C=CC(=O)N[C@@H]1CC[C@@H]1[C@@H]2CC[C@]2(C)[C@@H](C(=O)Nc3cccc(N[C@@H]4CCC[C@@H](Nc5cccc6c5C(=O)N([C@H]5CCC(=O)NC5=O)C6=O)C4)c3)CC[C@@H]12 [C63, N-(3-(N—(N-(4-(2-(3S-(2,6-dioxopiperidine))-isoindole-1,3-dione))-1R,3R-cyclohexanediamine))phenyl)-3-oxo-4-aza-5α-androst-1-ene-17β-carboxamide] | 0.83% | 7.21% | 40.5% | 67.5% | 76.3% | 78.3% | 79.7% | 83.1% | 1.09% | 2.17% | 15.9% | 51.5% | 67.9% | 74.8% | 74.7% | 72.3%
